The source made the active and inactive calls. The rule behind the calls is not given here.
Columns and labels:
[1] = target: Glycogen synthase kinase-3 beta (Homo sapiens, UniProt P49841); test: biochemical
Description: Inhibition of recombinant human N-terminal His6-tagged GSK3beta H350L mutant expressed in baculovirus infected Sf21 cells using prephosphorylated polypeptide as substrate incubated for 1 min followed by substrate addition and measured after 30 mins by Kinase-Glo luminescence assay

[2] = test system: BV-2; test: Anti-inflammatory activity in mouse BV-2 cells assessed as reduction in LPS-induced IL-1beta production incubated for 1 hr followed by LPS stimulation and measured after 24 hrs by ELISA; type: functional, cell-based; conditions: dose 2-8 µM, time 25.0 hrs
[3] = AUC (0 to infinity) in Sprague-Dawley rat at 5 mg/kg, iv by LC-MS/MS analysis; type: ADME, organism-based; parameters: route intravenous, dose 5 mg/kg; conditions: in vivo
[4] = AUC (0 to 24 hrs) in Sprague-Dawley rat at 5 mg/kg, iv measured upto 24 hrs by LC-MS/MS analysis; type: ADME, organism-based; parameters: route intravenous, dose 5 mg/kg, time <=24; conditions: in vivo
[5] = target: Acetylcholinesterase (Homo sapiens, UniProt P22303); test: Inhibition of human recombinant AChE expressed in HEK293 cells using acetylthiocholine iodide as substrate incubated for 10 mins by Ellman's method; type: cell-based
Chain of Acetylcholinesterase (P22303 whole entry): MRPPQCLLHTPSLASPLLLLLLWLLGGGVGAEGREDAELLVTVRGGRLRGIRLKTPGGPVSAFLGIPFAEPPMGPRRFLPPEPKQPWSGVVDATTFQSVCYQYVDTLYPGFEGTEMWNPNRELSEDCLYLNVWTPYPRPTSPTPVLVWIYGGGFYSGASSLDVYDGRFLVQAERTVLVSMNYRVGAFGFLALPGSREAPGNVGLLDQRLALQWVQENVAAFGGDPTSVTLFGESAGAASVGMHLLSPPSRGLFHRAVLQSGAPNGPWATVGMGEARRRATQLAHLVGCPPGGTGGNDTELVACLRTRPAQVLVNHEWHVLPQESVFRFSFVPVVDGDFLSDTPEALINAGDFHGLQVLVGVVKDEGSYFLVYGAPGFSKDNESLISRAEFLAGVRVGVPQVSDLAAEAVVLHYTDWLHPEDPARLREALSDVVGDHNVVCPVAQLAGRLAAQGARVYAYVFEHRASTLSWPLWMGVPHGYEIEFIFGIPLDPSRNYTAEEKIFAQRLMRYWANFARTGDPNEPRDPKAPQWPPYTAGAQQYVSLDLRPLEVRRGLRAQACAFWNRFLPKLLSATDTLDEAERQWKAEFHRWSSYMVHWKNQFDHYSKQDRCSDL

[6] = AUC (0 to infinity) in Sprague-Dawley rat at 10 mg/kg, po by LC-MS/MS analysis; type: ADME, organism-based; parameters: route oral, time infinity, dose 10 mg/kg; conditions: in vivo
[7] = test system: BV-2; test: Anti-inflammatory activity in mouse BV-2 cells assessed as reduction in LPS-induced TNFalpha production incubated for 1 hr followed by LPS stimulation and measured after 24 hrs by ELISA; type: functional, cell-based; conditions: dose 2-8 µM, time 25.0 hrs
[8] = target: Cholinesterase (Homo sapiens, UniProt P06276); test: Inhibition of human BChE using butyrylthiocholineiodide as substrate incubated for 10 mins by Ellman's method
Chain of Cholinesterase (P06276 whole entry): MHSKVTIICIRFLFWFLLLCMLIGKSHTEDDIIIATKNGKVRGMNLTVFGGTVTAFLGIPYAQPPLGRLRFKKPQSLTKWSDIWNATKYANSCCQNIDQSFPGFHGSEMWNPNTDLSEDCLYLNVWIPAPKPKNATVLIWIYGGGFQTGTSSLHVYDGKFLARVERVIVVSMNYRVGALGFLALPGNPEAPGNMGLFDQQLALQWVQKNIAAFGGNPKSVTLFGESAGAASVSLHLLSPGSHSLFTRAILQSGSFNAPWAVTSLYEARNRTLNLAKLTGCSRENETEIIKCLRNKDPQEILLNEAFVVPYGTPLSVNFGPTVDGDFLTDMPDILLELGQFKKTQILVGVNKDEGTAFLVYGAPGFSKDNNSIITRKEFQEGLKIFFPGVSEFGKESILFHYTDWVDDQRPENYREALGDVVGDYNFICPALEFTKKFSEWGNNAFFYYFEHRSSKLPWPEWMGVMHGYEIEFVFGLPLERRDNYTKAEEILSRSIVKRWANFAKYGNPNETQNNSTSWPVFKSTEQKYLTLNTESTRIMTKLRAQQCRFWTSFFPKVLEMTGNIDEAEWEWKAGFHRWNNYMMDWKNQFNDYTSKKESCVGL

[9] = test system: BV-2; test: Cytotoxicity against mouse BV-2 cells assessed as effect on cell morphology; type: cell-based
[10] = Clearance in Sprague-Dawley rat at 10 mg/kg, po measured upto 24 hrs by LC-MS/MS analysis; type: ADME, organism-based; conditions: in vivo
[11] = Toxicity in ICR mouse assessed as reduction in body weight at 15 mg/kg, po; type: organism-based; conditions: in vivo
[12] = Half life in Sprague-Dawley rat at 10 mg/kg, po measured upto 24 hrs by LC-MS/MS analysis; type: ADME, organism-based; conditions: in vivo
[13] = Volume of distribution in Sprague-Dawley rat at 10 mg/kg, po measured upto 24 hrs by LC-MS/MS analysis; type: ADME, organism-based; conditions: in vivo
[14] = MRT (0 to t) in Sprague-Dawley rat at 10 mg/kg, po measured upto 24 hrs by LC-MS/MS analysis; type: ADME, organism-based; conditions: in vivo
[15] = Volume of distribution in Sprague-Dawley rat at 5 mg/kg, iv measured upto 24 hrs by LC-MS/MS analysis; type: ADME, organism-based; conditions: in vivo
[16] = Half life in Sprague-Dawley rat at 5 mg/kg, iv measured upto 24 hrs by LC-MS/MS analysis; type: ADME, organism-based; conditions: in vivo
[17] = Toxicity in ICR mouse model of scopolamine-induced cognitive dysfunction assessed as effect on locomotor activity by measuring effect on swimming speed at 15 mg/kg, po by Morris water maze test; type: organism-based; conditions: in vivo
[18] = Cmax in Sprague-Dawley rat at 5 mg/kg, iv measured upto 24 hrs by LC-MS/MS analysis; type: ADME, organism-based; parameters: route intravenous, dose 5 mg/kg, time <=24; conditions: in vivo
[19] = test system: BV-2; test: Anti-inflammatory activity in mouse BV-2 cells assessed as reduction in LPS-induced ROS production at 3 uM incubated for 1 hr followed by LPS stimulation and measured after 24 hrs by DCFH-DA staining based inverted fluorescence microscopy; type: functional, cell-based; conditions: time 25.0 hrs
[20] = Plasma concentration in ICR mouse at 15 mg/kg, po measured after 90 mins by LC-MS/MS analysis; type: ADME, organism-based
[21] = MRT (0 to t) in Sprague-Dawley rat at 5 mg/kg, iv measured upto 24 hrs by LC-MS/MS analysis; type: ADME, organism-based; conditions: in vivo
[22] = in vitro; conditions: PAMPA
Description: Effective permeability of compound in PBS/EtOH buffer (7:3) at 25 ug/ml incubated for 18 hrs by PAMPA-BBB assay

[23] = Clearance in Sprague-Dawley rat at 5 mg/kg, iv measured upto 24 hrs by LC-MS/MS analysis; type: ADME, organism-based; conditions: in vivo
[24] = Ratio of drug level in ICR mouse brain to blood at 15 mg/kg, po measured after 90 mins by LC-MS/MS analysis; type: ADME, organism-based; conditions: 1.5 h
[25] = test system: BV-2; test: Anti-inflammatory activity in mouse BV-2 cells assessed as reduction in LPS-induced IL-1beta expression at 4 uM incubated for 1 hr followed by LPS stimulation and measured after 24 hrs by immunofluorescence based laser confocal microscopy; type: functional, cell-based; conditions: time 25.0 hrs
[26] = Tmax in Sprague-Dawley rat at 5 mg/kg, iv measured upto 24 hrs by LC-MS/MS analysis; type: ADME, organism-based; conditions: in vivo
[27] = Oral bioavailability in Sprague-Dawley rat at 10 mg/kg measured upto 24 hrs by LC-MS/MS analysis; type: ADME, organism-based; conditions: in vivo
[28] = Tmax in Sprague-Dawley rat at 10 mg/kg, po measured upto 24 hrs by LC-MS/MS analysis; type: ADME, organism-based; conditions: in vivo
[29] = test system: BV-2; test: Anti-inflammatory activity in mouse BV-2 cells assessed as reduction in LPS-induced TNFalpha expression at 4 uM incubated for 1 hr followed by LPS stimulation and measured after 24 hrs by immunofluorescence based laser confocal microscopy; type: functional, cell-based; conditions: time 25.0 hrs
[30] = Drug uptake in mouse BV-2 cells at 25 uM incubated for 1 hr measured per million cells by LC-MS/MS analysis; type: ADME, cell-based; conditions: bv-2, 1 h
[31] = AUC (0 to 24 hrs) in Sprague-Dawley rat at 10 mg/kg, po measured upto 24 hrs by LC-MS/MS analysis; type: ADME, organism-based; parameters: route oral, dose 10 mg/kg, time <=24; conditions: in vivo
[32] = Cmax in Sprague-Dawley rat at 10 mg/kg, po measured upto 24 hrs by LC-MS/MS analysis; type: ADME, organism-based; parameters: route oral, dose 10 mg/kg, time <=24; conditions: in vivo

Chain of Glycogen synthase kinase-3 beta (P49841 whole entry): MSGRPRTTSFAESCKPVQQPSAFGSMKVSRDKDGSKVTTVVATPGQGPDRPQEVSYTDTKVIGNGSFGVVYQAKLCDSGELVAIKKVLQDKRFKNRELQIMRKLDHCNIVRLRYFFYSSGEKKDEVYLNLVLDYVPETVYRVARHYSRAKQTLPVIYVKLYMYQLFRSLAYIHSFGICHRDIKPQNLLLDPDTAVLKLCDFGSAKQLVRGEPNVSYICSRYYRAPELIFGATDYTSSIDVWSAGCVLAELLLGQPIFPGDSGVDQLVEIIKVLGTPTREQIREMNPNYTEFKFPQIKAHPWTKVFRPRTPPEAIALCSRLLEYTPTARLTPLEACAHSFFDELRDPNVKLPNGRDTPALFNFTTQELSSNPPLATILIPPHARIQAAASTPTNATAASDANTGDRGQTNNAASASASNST

NC(=O)c1sc(-c2ccnc(NC(=O)C3CC3)c2)nc1OCCCC1CCN(Cc2ccccc2)CC1
IC50 [1]: 0.008 µM | Activity [2]: Dose-dependent effect | AUC(0-inf) [3]: 1760 ng·h/mL | AUC(0-t) [4]: 1680 ng·h/mL | IC50 [5]: 0.38 µM | AUC(0-inf) [6]: 453 ng·h/mL | Activity [7]: Dose-dependent effect | IC50 [8]: 20.6 µM | Activity [9]: Non-Toxic | CL/F [10]: 296 mL/min/kg | Activity [11]: Non-Toxic | half-life [12]: 3.9 h | Vd [13]: 77 L/kg | MRT last at 24 h [14]: 9.2 h | Vd [15]: 30.7 L/kg | half-life [16]: 6.3 h | Activity [17]: Non-Toxic | Cmax [18]: 771 ng/mL | Activity [19]: Active | concentration at 1.5 h [20]: 84.9 ng/mL | MRT last at 24 h [21]: 5.1 h | Papp at 18 h, 25 ug/ml [22]: 10.9 ×10⁻⁶ cm/s | clearance [23]: 50.1 mL/min/kg | Ratio [24]: 9.2 ng/kg | Activity [25]: Active | Tmax [26]: 4.98 min | bioavailability [27]: 15.1% | Tmax [28]: 8 h | Activity [29]: Active | Drug uptake [30]: 103 ng | AUC(0-t) [31]: 440 ng·h/mL | Cmax [32]: 44.1 ng/mL

NC(=O)c1sc(-c2ccnc(NC(=O)C3CC3)c2)nc1OCCCC1CCN(Cc2ccccc2F)CC1
IC50 [1]: 0.015 µM | IC50 [5]: 1.32 µM | IC50 [8]: 4.2 µM | Papp at 18 h, 25 ug/ml [22]: 7.1 ×10⁻⁶ cm/s

CNC(=O)c1sc(-c2ccnc(NC(=O)C3CC3)c2)nc1OCC1CCN(Cc2ccc(Cl)cc2)CC1
IC50 [1]: 0.045 µM | IC50 [5]: 82 µM | IC50 [8]: 297 µM

CNC(=O)c1sc(-c2ccnc(NC(=O)C3CC3)c2)nc1OCC1CCN(Cc2cccc([N+](=O)[O-])c2)CC1
IC50 [1]: 0.005 µM | IC50 [5]: 6 µM | IC50 [8]: 9 µM

NC(=O)c1sc(-c2ccnc(NC(=O)C3CC3)c2)nc1OCCC1CCN(Cc2cccc(F)c2)CC1
IC50 [1]: 0.026 µM | IC50 [5]: 4.7 µM | IC50 [8]: 295 µM | Papp at 18 h, 25 ug/ml [22]: 7 ×10⁻⁶ cm/s

CNC(=O)c1sc(-c2ccnc(NC(=O)C3CC3)c2)nc1OCC1CCN(Cc2ccccc2)CC1
IC50 [1]: 0.016 µM | IC50 [5]: 8 µM | IC50 [8]: 14 µM

CNC(=O)c1sc(-c2ccnc(NC(=O)C3CC3)c2)nc1OCC1CCN(Cc2cccc(Br)c2)CC1
IC50 [1]: 0.049 µM | IC50 [5]: 394 µM | IC50 [8]: 15 µM

NC(=O)c1sc(-c2ccnc(NC(=O)C3CC3)c2)nc1OCCC1CCN(Cc2ccccc2)CC1
IC50 [1]: 0.019 µM | IC50 [5]: 0.73 µM | IC50 [8]: 15.3 µM | Papp at 18 h, 25 ug/ml [22]: 8.8 ×10⁻⁶ cm/s

CCn1cc(C(=O)O)c(=O)c2ccc(-n3cccc3)cc21
Papp at 18 h, 25 ug/ml [22]: 2.5 ×10⁻⁶ cm/s

CNC(=O)c1sc(-c2ccnc(NC(=O)C3CC3)c2)nc1OC1CCN(Cc2ccccc2)CC1
IC50 [1]: 0.007 µM | IC50 [5]: 73 µM | IC50 [8]: 31 µM

COc1cc2c(cc1OC)C(=O)C(CC1CCN(Cc3ccccc3)CC1)C2 (stereo not drawn) [DONEPEZIL]
IC50 [1]: > 1 µM

NC(=O)c1sc(-c2ccnc(NC(=O)C3CC3)c2)nc1OCCCC1CCN(Cc2cccc(F)c2)CC1
IC50 [1]: 0.009 µM | IC50 [5]: 3 µM | IC50 [8]: 1.8 µM | Papp at 18 h, 25 ug/ml [22]: 8.6 ×10⁻⁶ cm/s

NC(=O)c1sc(-c2ccnc(NC(=O)C3CC3)c2)nc1OCCC1CCN(Cc2ccccn2)CC1
IC50 [1]: 0.193 µM | IC50 [5]: 6.6 µM | IC50 [8]: 86.1 µM

Reference: ChEMBL document CHEMBL4680314, “Discovery of potent glycogen synthase kinase 3/cholinesterase inhibitors with neuroprotection as potential therapeutic agent for Alzheimer's disease” (Bioorg Med Chem, 2021)
